From BindingDB's records for doi:10.1124/jpet.104.078303 (Abbott Laboratories, 2005) come the findings set out here.

Each structure is given as a SMILES string. Where “and” joins values, the source holds several entries; their conditions need not be identical. Equal entries are not always repeated.

Among the targets are Histamine H4 receptor (Homo sapiens, UniProt Q9H3N8); Histamine H1 receptor (Homo sapiens, UniProt P35367); Histamine H2 receptor (Homo sapiens, UniProt P25021); Histamine receptor H3 (Canis lupus familiaris, UniProt Q865E3); Hrh3 protein (Rattus norvegicus, UniProt Q5PPG3).
Experiment [1] deals with Histamine H3 receptor (Homo sapiens, UniProt Q9Y5N1).
Histamine H3 receptor (Homo sapiens, UniProt Q9Y5N1), sequence (Q9Y5N1 whole entry): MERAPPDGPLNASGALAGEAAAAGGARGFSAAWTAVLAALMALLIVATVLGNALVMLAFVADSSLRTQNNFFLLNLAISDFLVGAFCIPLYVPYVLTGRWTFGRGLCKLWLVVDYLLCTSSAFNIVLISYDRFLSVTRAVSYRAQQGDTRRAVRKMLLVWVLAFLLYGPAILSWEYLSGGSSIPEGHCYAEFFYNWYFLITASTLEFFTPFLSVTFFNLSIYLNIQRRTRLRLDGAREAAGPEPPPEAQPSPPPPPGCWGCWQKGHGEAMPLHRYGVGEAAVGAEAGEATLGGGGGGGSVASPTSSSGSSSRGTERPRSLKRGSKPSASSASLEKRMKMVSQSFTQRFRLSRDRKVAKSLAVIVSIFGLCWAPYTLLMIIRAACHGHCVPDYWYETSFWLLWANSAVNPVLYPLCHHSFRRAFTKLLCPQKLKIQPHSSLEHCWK
In experiment [2] the target is Histamine H3 receptor (Cavia porcellus, UniProt Q9JI35).
Histamine H3 receptor (Cavia porcellus, UniProt Q9JI35), sequence (Q9JI35 whole entry): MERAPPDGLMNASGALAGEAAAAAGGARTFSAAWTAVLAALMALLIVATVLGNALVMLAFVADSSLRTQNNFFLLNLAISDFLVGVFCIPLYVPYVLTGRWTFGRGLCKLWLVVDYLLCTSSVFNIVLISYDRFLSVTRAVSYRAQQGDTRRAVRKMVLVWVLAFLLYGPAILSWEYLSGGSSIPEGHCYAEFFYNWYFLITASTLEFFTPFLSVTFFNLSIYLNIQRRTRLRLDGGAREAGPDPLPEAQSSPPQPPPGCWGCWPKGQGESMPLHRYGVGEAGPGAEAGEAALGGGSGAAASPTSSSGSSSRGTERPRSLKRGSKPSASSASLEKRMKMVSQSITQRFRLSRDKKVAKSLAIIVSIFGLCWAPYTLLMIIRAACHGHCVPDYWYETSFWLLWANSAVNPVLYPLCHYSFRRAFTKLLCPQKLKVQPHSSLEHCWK

Hrh3 protein, sequence (Q5PPG3 whole entry): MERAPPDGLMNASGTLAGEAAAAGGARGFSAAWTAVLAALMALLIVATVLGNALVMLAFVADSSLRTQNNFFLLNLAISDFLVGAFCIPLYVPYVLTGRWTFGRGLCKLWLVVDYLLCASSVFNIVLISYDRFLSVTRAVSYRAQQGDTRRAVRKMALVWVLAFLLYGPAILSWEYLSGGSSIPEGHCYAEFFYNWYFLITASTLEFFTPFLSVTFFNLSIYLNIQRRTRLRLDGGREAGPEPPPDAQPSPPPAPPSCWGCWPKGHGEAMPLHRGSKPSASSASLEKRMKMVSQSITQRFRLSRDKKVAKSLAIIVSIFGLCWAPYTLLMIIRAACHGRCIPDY
Histamine H4 receptor, sequence (Q9H3N8 whole entry): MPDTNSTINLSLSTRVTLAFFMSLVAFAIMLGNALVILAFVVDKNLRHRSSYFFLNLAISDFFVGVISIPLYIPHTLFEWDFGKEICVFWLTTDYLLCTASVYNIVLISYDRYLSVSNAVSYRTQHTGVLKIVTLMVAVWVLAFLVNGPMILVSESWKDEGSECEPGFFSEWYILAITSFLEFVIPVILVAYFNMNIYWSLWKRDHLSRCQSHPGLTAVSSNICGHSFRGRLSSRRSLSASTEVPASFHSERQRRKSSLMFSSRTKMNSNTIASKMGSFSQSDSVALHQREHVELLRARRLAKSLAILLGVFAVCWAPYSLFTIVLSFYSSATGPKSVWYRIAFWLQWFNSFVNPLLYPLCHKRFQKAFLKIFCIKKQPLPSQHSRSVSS
Histamine receptor H3, sequence (Q865E3 whole entry): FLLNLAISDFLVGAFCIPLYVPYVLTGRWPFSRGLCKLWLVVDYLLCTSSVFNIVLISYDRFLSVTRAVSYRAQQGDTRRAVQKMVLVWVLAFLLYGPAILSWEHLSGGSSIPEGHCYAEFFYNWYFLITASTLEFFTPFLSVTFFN
Histamine H2 receptor, sequence (P25021 whole entry): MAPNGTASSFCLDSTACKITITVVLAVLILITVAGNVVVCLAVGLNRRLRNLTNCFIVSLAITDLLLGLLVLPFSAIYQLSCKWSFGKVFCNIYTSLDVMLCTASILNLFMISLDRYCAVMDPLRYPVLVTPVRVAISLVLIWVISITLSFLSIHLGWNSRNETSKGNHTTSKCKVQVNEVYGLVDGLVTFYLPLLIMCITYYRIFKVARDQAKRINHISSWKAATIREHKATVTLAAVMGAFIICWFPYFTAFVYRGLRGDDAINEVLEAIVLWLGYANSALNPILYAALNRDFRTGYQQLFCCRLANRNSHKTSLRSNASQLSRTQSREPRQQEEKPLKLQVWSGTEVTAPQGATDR
Histamine H1 receptor, sequence (P35367 whole entry): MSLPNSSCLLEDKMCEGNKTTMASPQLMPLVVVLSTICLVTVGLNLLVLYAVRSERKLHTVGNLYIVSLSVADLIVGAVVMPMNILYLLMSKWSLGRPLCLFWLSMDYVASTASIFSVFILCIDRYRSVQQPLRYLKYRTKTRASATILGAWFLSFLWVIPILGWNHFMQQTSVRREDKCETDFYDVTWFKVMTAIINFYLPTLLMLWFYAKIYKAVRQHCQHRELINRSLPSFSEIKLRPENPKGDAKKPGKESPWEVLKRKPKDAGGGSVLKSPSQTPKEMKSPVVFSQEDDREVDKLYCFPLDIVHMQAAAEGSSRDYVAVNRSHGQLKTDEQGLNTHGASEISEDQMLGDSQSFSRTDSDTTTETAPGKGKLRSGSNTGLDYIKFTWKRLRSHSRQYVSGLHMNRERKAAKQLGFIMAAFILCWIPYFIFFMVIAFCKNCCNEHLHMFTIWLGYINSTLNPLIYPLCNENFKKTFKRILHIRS

Usually Ki stands for a measure of affinity in units of concentration, obtained from inhibition or displacement. Consider `CC(C)(C)CCC#C[C@@H]1C[C@H]1c1c[nH]cn1`, for which the Ki at Histamine H3 receptor [1] was 5.25 nM and 12.3 nM; at Histamine H4 receptor it was 0.0513 µM; on Histamine H1 receptor, > 10000 nM; at Histamine H2 receptor it was > 10 µM; at Histamine receptor H3 it was 1.32 nM; on Histamine H3 receptor [2] it was 0.63 nM. Further, the Ki on Hrh3 protein is 0.11 nM and 0.25 nM.

`C[C@@H]1CC[C@@H](C)N1CCCOc1ccc(-c2ccc(C(=O)N3CCOCC3)cc2)cc1` [(4'-(3-((2R,5R)-2,5-dimethylpyrrolidin-1-yl)propoxy)biphenyl-4-yl)(morpholino)methanone]: the Ki on Histamine H3 receptor [1] was 0.41 nM and 0.43 nM; on Histamine H4 receptor it was > 10 µM; at Histamine H2 receptor it was > 10 µM; at Histamine receptor H3 it was 1.2 nM; at Histamine H3 receptor [2], 0.55 nM; on Hrh3 protein, 1.66 nM and 1.45 nM.

On to `C[C@@H]1CCCN1CCc1cc2cc(-c3ccc(C#N)cc3)ccc2o1` [(R)-4-(2-(2-(2-methylpyrrolidin-1-yl)ethyl)benzofuran-5-yl)benzonitrile], for which the Ki on Histamine H4 receptor was > 10 µM; at Histamine H1 receptor, 1620 nM; on Histamine H2 receptor, 6.76 µM; on Histamine receptor H3, 3.89 nM; at Hrh3 protein, 1.23 nM and 3.24 nM.
